# Source: ChEMBL document CHEMBL1201862, “PubChem BioAssay data set” (2004)
# Active and inactive are the calls of the source.
# Target: T1, Leucine aminopeptidase (Plasmodium falciparum 3D7, UniProt Q8IL11)
# T1 sequence (Q8IL11 whole entry): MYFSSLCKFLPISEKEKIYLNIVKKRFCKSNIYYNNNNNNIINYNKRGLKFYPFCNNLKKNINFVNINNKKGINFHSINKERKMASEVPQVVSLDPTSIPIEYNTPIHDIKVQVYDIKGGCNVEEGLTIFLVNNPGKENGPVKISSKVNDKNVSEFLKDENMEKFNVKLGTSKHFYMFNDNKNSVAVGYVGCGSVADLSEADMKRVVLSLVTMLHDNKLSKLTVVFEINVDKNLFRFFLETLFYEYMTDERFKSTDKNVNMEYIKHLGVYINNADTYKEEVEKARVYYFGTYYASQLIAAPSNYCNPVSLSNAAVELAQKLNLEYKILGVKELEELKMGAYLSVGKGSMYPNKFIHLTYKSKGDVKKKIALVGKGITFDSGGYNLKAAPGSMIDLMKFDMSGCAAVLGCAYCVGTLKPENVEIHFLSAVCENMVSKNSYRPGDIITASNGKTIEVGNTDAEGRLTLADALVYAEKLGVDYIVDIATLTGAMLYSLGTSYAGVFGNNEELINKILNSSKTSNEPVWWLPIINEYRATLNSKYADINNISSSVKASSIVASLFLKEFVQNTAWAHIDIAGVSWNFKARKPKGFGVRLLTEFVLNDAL
# Assay: P. falciparum M17LAP inhibitors, primary screen, biochemical, fluorogenic H-Leu-NHMec substrate, 1536-well (AID 1619)
# Type: functional
row,Structure (SMILES),IC50
1,Cc1noc(NS(=O)(=O)c2ccc(NC(=O)Nc3ccc(Cl)c(Cl)c3)cc2)c1C,9.03 µM (active)
2,O=C(O)c1cnn2cc(-c3n[nH]cc3[N+](=O)[O-])cnc12,13.3 µM (active)
3,CCOc1ccc(Nc2nnc(S)s2)cc1,< 1 µM (active)
4,CN1C2CCC1/C(=C/c1cccn1C)C(=O)/C2=C\c1cccn1C,51.9 µM (active)
5,COc1cccc(N/N=C(\C#N)S(=O)(=O)C(C)(C)C)c1,26.7 µM (active)

# Target: T2, Fatty acid synthase (Homo sapiens, UniProt P49327)
# Assay: FAS thioesterase domain inhibitors, dose response, biochemical, endpoint fluorescence intensity, uHTS hits (AID 624327);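 also: fluorescence from hydrolysis of an O-methyl fluorescein acyl ester substrate by the enzyme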
# Type: functional
# T2 sequence (P49327 whole entry, the tested form may be a part): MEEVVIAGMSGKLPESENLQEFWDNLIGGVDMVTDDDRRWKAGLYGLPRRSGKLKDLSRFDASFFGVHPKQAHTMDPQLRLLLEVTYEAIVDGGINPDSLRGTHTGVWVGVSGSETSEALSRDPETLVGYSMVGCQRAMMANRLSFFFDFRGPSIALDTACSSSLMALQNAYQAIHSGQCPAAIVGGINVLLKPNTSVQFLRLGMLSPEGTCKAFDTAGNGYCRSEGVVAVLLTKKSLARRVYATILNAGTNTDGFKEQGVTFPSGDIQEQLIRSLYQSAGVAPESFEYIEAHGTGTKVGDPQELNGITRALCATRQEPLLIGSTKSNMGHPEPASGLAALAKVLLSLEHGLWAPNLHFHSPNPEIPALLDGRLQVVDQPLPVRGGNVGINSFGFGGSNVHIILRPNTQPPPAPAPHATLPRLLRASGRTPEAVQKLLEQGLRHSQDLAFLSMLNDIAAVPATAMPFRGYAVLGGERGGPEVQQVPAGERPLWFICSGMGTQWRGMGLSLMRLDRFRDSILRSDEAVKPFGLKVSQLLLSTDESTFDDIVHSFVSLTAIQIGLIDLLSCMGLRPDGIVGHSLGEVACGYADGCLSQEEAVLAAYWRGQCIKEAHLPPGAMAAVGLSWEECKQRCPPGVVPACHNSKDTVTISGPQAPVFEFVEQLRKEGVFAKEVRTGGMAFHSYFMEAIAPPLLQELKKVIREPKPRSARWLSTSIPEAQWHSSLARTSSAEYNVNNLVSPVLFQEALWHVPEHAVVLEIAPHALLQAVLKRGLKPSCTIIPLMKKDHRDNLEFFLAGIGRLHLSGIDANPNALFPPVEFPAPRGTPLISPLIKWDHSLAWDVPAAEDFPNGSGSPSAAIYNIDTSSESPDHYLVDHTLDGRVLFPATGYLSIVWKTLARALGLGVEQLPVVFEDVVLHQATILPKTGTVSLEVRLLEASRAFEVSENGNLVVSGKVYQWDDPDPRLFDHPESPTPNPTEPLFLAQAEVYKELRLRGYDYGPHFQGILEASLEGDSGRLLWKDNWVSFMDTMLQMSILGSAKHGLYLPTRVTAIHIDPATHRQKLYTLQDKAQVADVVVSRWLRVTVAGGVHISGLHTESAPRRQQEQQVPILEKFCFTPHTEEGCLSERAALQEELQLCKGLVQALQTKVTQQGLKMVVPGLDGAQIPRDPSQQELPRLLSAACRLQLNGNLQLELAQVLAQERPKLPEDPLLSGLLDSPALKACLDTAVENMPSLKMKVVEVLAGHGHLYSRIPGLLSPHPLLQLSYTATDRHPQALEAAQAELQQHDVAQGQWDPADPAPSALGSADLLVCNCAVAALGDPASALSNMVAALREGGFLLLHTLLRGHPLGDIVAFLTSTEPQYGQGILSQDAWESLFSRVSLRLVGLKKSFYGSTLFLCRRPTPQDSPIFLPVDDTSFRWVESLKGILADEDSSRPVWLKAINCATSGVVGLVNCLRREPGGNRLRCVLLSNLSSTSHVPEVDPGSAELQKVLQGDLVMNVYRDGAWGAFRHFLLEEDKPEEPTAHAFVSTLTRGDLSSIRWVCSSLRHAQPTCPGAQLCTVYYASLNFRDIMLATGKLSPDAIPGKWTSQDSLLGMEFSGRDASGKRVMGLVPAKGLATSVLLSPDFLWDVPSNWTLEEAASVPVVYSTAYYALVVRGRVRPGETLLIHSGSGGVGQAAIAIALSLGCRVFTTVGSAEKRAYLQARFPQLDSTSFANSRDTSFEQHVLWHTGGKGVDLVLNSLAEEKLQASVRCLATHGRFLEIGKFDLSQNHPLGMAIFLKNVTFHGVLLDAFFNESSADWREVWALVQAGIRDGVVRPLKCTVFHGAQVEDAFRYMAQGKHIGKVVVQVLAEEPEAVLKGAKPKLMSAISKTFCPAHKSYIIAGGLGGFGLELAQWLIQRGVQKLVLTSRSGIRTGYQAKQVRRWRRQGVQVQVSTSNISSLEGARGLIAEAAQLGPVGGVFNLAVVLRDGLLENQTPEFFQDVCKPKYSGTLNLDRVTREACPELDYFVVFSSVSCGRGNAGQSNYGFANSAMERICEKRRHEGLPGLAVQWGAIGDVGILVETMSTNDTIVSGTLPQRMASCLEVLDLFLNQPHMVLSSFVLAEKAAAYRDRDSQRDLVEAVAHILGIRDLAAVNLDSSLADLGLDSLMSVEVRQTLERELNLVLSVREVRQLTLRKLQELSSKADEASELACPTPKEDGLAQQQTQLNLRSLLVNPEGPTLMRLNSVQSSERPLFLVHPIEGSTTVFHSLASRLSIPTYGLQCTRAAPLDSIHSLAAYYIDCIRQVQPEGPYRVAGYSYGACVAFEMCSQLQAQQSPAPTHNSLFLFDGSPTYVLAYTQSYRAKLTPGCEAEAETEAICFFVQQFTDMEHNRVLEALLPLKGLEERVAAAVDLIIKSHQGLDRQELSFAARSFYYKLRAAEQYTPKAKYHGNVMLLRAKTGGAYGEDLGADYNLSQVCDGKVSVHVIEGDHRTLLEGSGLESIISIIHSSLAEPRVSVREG
row,Structure (SMILES),IC50
1,COC(=O)c1cc(C(=O)NCc2ccc3c(c2)OCO3)cc([N+](=O)[O-])c1,11.1 µM (active)
2,CCn1cc([N+](=O)[O-])c(C(=O)N2N=C(c3ccccc3)CC2c2ccc([N+](=O)[O-])cc2)n1 (centres undefined),15.6 µM (active)
3,CC1CCN(C(=O)COC(=O)c2cc([N+](=O)[O-])ccc2N2CCOCC2)CC1,3.58 µM (active)
4,CN(c1ccccc1)S(=O)(=O)c1cccc(NC(=O)CCNC(=O)c2ccc([N+](=O)[O-])cc2)c1,7.63 µM (active)
5,COc1ccc(-c2cc(=O)oc3c(C)c(OCc4nn[nH]n4)ccc23)cc1,9.18 µM (active)
6,CC(=O)N1N=C(c2cccc([N+](=O)[O-])c2)OC1c1cccc(Br)c1 (centres undefined),9.14 µM (active)
7,COc1ccc(CN(C)C(=O)COC(=O)c2cc([N+](=O)[O-])ccc2N2CCCC2)c(OC)c1OC,5.42 µM (active)
8,Cc1cc(=O)oc2cc(OCC(=O)N3CCN(C(C)c4ccccc4)CC3)c(Cl)cc12 (centres undefined),8.39 µM (active)
9,CC(NC(=O)C(C(=O)c1cccc([N+](=O)[O-])c1)n1cc(Cl)ccc1=O)c1ccccc1 (centres undefined),8.63 µM (active)
10,COc1ccc([N+](=O)[O-])cc1NC(=O)C1(c2ccccc2)CCOCC1,19.6 µM (active)
11,Cc1ccc(S(=O)(=O)c2nnn3c2nc(N2CCC(C(N)=O)CC2)c2ccccc23)cc1C,11.4 µM (active)
12,CCOC(=O)[C@@H]1[C@H]2COc3cc(OC)ccc3[C@H]2N2C(=O)N(c3cccc(Cl)c3)C(=O)[C@@]12C,23.7 µM (inactive)
13,C/C=C/C=N/NC(=O)CN(c1ccc(Br)cc1)S(=O)(=O)c1ccccc1,10.6 µM (active)
14,CCc1nc2c(OCc3ccc(Cl)cc3)cccn2c1N(C=O)Cc1ccccc1,6.9 µM (active)

# Target: T3, Rac GTPase-activating protein 1 (Homo sapiens, UniProt Q9H0H5)
# T3 sequence (Q9H0H5 whole entry): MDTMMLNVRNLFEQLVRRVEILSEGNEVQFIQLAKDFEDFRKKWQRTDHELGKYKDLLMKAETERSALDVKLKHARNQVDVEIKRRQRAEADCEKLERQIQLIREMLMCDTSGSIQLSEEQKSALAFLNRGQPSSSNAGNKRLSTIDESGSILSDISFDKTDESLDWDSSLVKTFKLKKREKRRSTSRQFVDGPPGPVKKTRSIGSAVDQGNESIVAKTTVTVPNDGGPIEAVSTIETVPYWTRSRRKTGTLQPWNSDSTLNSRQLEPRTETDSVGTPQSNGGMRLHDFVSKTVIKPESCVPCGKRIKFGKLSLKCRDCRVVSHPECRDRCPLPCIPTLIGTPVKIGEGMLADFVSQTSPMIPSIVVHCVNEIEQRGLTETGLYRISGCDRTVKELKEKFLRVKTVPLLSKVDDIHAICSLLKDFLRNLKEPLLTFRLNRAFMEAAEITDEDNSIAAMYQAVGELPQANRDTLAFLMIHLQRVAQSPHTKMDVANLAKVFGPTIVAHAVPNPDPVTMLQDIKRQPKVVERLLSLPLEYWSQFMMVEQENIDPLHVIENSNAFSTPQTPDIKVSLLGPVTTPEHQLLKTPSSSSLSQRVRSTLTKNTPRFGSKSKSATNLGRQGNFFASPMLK
# Assay: MgcRacGAP GTPase-activating activity inhibitors, confirmation, biochemical, ADP Hunter fluorescence, primary and confirmatory (AID 624330)
# Type: functional
row,Structure (SMILES),IC50
1,CCOc1ccc(Nc2nnc(S)s2)cc1,54.8 µM (active)

# Target: T2, Fatty acid synthase
# Assay: FAS thioesterase domain inhibitors, dose response, biochemical, kinetic fluorescence intensity (AID 624326);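 also: rate of fluorescence rise from hydrolysis of a fluorogenic O-methyl fluorescein ester substrate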
# Type: functional
row,Structure (SMILES),IC50
1,COC(=O)c1cc(C(=O)NCc2ccc3c(c2)OCO3)cc([N+](=O)[O-])c1,11.7 µM (active)
2,CCn1cc([N+](=O)[O-])c(C(=O)N2N=C(c3ccccc3)CC2c2ccc([N+](=O)[O-])cc2)n1 (centres undefined),13.2 µM (active)
3,CC1CCN(C(=O)COC(=O)c2cc([N+](=O)[O-])ccc2N2CCOCC2)CC1,5.23 µM (active)
4,CN(c1ccccc1)S(=O)(=O)c1cccc(NC(=O)CCNC(=O)c2ccc([N+](=O)[O-])cc2)c1,9.59 µM (active)
5,COc1ccc(-c2cc(=O)oc3c(C)c(OCc4nn[nH]n4)ccc23)cc1,5.32 µM (active)
6,CC(=O)N1N=C(c2cccc([N+](=O)[O-])c2)OC1c1cccc(Br)c1 (centres undefined),11.9 µM (active)
7,COc1ccc(CN(C)C(=O)COC(=O)c2cc([N+](=O)[O-])ccc2N2CCCC2)c(OC)c1OC,6.71 µM (active)
8,Cc1cc(=O)oc2cc(OCC(=O)N3CCN(C(C)c4ccccc4)CC3)c(Cl)cc12 (centres undefined),8.55 µM (active)
9,CC(NC(=O)C(C(=O)c1cccc([N+](=O)[O-])c1)n1cc(Cl)ccc1=O)c1ccccc1 (centres undefined),7.89 µM (active)
10,COc1ccc([N+](=O)[O-])cc1NC(=O)C1(c2ccccc2)CCOCC1,16.5 µM (active)
11,Cc1ccc(S(=O)(=O)c2nnn3c2nc(N2CCC(C(N)=O)CC2)c2ccccc23)cc1C,8.84 µM (active)
12,CCOC(=O)[C@@H]1[C@H]2COc3cc(OC)ccc3[C@H]2N2C(=O)N(c3cccc(Cl)c3)C(=O)[C@@]12C,13.6 µM (active)
13,C/C=C/C=N/NC(=O)CN(c1ccc(Br)cc1)S(=O)(=O)c1ccccc1,10.1 µM (active)
14,CCc1nc2c(OCc3ccc(Cl)cc3)cccn2c1N(C=O)Cc1ccccc1,3.71 µM (active)
